Assay results reported in patent US9907790B2, “Solid forms of an ASK1 inhibitor” (Gilead Sciences, Inc., priority 2014, dated 2018).
Converted amounts (≈) assume the structure as drawn.

Legend:
Type in all cases: physicochemical
[1] = Form change on heating, drying or exposure to ambient conditions; settings: for form change at ambient conditions: ambient temperature and humidity / storage at ambient conditions; for form change upon drying: drying (air-drying at RT)
Text: Form V has only been truly isolated by growth of single crystals.
Isolated solids were dried with filter paper to remove residual solvents and analyzed by DSC, TGA and KF. […] (FIG. 45).
The sample was stirred for more than two months before being placed into storage without agitation and at ambient conditions. […] The material was collected by vacuum filtration and dried under ambient conditions. […] (FIG. 48).

[2] = Competition slurries between crystalline forms; settings: ethanol, agitating overnight
[3] = High humidity stress test at 75% RH/RT
[4] = Stable form screen of Compound I (suspension in solvents at RT, solids analysed by XRPD); settings: starting from Compound I Form I
Method: Compound I Form I was suspended with stirring in capped glass vials at RT. Samples from the suspensions were centrifuged/filtered and the isolated solids and liquids were analyzed. Solids were analyzed by XRPD and liquids were analyzed for solubility by […]. Sampling and analysis were performed after one day and greater than fourteen days.

[5] = Solubility of Compound I in EtOH; settings: ethanol, organic solvent or mixture
Method: The crystallization was then continued in line with Method 1 outlined above. After filtration, the Form I solids are dried in a vacuum oven at about 45-50° C.

For Cc1cc(F)c(C(=O)Nc2cccc(-c3nncn3C(C)C)n2)cc1-n1cnc(C2CC2)c1 [Compound I Form VII, 5-(4-cyclopropyl-1H-imidazol-1-yl)-N-(6-(4-isopropyl-4H-1,2,4-triazol-3-yl)pyridin-2-yl)-2-fluoro-4-methylbenzamide], the “form change at ambient conditions” value [1] was “rapidly converts back to Compound I Form IV” and the “outcome of competitive slurry with Compound I Form I” value [2] was “full conversion of Compound I Form VII to Compound I Form I”.
With Cc1cc(F)c(C(=O)Nc2cccc(-c3nncn3C(C)C)n2)cc1-n1cnc(C2CC2)c1 [Compound I Form IX, 5-(4-cyclopropyl-1H-imidazol-1-yl)-N-(6-(4-isopropyl-4H-1,2,4-triazol-3-yl)pyridin-2-yl)-2-fluoro-4-methylbenzamide] the “form change at ambient conditions” value [1] was “converts to Form I”.
For Cc1cc(F)c(C(=O)Nc2cccc(-c3nncn3C(C)C)n2)cc1-n1cnc(C2CC2)c1 [Compound I Form VIII, 5-(4-cyclopropyl-1H-imidazol-1-yl)-N-(6-(4-isopropyl-4H-1,2,4-triazol-3-yl)pyridin-2-yl)-2-fluoro-4-methylbenzamide], the “form change at ambient conditions” value [1] was “rapidly loses water and converts to Compound I Form VI”.
With Cc1cc(F)c(C(=O)Nc2cccc(-c3nncn3C(C)C)n2)cc1-n1cnc(C2CC2)c1 [Compound I Form V, 5-(4-cyclopropyl-1H-imidazol-1-yl)-N-(6-(4-isopropyl-4H-1,2,4-triazol-3-yl)pyridin-2-yl)-2-fluoro-4-methylbenzamide] the “form change upon drying” value [1] was “readily desolvates to Compound I Form II” and the “form change upon drying” value ([1]; listed as Form V) was “converting to Form II”.
For Cc1cc(F)c(C(=O)Nc2cccc(-c3nncn3C(C)C)n2)cc1-n1cnc(C2CC2)c1 [Compound I Form II, 5-(4-cyclopropyl-1H-imidazol-1-yl)-N-(6-(4-isopropyl-4H-1,2,4-triazol-3-yl)pyridin-2-yl)-2-fluoro-4-methylbenzamide], the “form change after heating” value ([1]; heating to about 110° C.) was “No form change” and the “form change after heating” value ([1]; heating up to about 180° C.) was “re-crystallizes to Compound I Form VI”.
With Cc1cc(F)c(C(=O)Nc2cccc(-c3nncn3C(C)C)n2)cc1-n1cnc(C2CC2)c1.Cc1ccc(S(=O)(=O)O)cc1 [Compound I Tosylate Form I, 5-(4-cyclopropyl-1H-imidazol-1-yl)-N-(6-(4-isopropyl-4H-1,2,4-triazol-3-yl)pyridin-2-yl)-2-fluoro-4-methylbenzamide tosylate] the “deliquescence in high humidity stress test” value (“deliquescence” for short) [3] was “did not show any evidence of deliquescence”.
With Cc1cc(F)c(C(=O)Nc2cccc(-c3nncn3C(C)C)n2)cc1-n1cnc(C2CC2)c1.O=C(O)C(O)C(O)C(=O)O [Compound I L-Tartrate Form I, 5-(4-cyclopropyl-1H-imidazol-1-yl)-N-(6-(4-isopropyl-4H-1,2,4-triazol-3-yl)pyridin-2-yl)-2-fluoro-4-methylbenzamide L-tartrate] the “deliquescence” value [3] was “did not show any evidence of deliquescence”.
With Cc1cc(F)c(C(=O)Nc2cccc(-c3nncn3C(C)C)n2)cc1-n1cnc(C2CC2)c1.O=C(O)/C=C\C(=O)O [Compound I Maleate Form I, 5-(4-cyclopropyl-1H-imidazol-1-yl)-N-(6-(4-isopropyl-4H-1,2,4-triazol-3-yl)pyridin-2-yl)-2-fluoro-4-methylbenzamide maleate] the “deliquescence” value [3] was “did not show any evidence of deliquescence”.
For Cc1cc(F)c(C(=O)Nc2cccc(-c3nncn3C(C)C)n2)cc1-n1cnc(C2CC2)c1.O=C(O)/C=C/C(=O)O [Compound I Fumarate Form I, 5-(4-cyclopropyl-1H-imidazol-1-yl)-N-(6-(4-isopropyl-4H-1,2,4-triazol-3-yl)pyridin-2-yl)-2-fluoro-4-methylbenzamide fumarate], the “deliquescence” value [3] was “did not show any evidence of deliquescence”.
With Cc1cc(F)c(C(=O)Nc2cccc(-c3nncn3C(C)C)n2)cc1-n1cnc(C2CC2)c1 [Compound I, 5-(4-cyclopropyl-1H-imidazol-1-yl)-N-(6-(4-isopropyl-4H-1,2,4-triazol-3-yl)pyridin-2-yl)-2-fluoro-4-methylbenzamide] the “14+ Day XRPD” value ([4]; suspended in 2-propanol at RT) was “Form I”, the “24 Hour XRPD” value ([4]; suspended in 2-propanol at RT) was “Form I” and the “14+ Day XRPD” value ([4]; suspended in ACN at RT) was “Form I”. The “24 Hour XRPD” value ([4]; suspended in ACN at RT) was “Form I”, the “24 Hour XRPD” value ([4]; suspended in DCM at RT) was “V, II” and the “14+ Day XRPD” value ([4]; suspended in EtOAc at RT) was “Form I”. The “24 Hour XRPD” value ([4]; suspended in EtOAc at RT) was “Form I”, the “14+ Day XRPD” value ([4]; suspended in Ethanol at RT) was “Form I” and the “24 Hour XRPD” value ([4]; suspended in Ethanol at RT) was “Form I”. The “14+ Day XRPD” value ([4]; suspended in IPAC at RT) was “Form I”, the “24 Hour XRPD” value ([4]; suspended in IPAC at RT) was “Form I” and the “14+ Day XRPD” value ([4]; suspended in MTBE at RT) was “Form I”. The “24 Hour XRPD” value ([4]; suspended in MTBE at RT) was “Form I”, the “14+ Day XRPD” value ([4]; suspended in THF at RT) was “Form I” and the “24 Hour XRPD” value ([4]; suspended in THF at RT) was “Form I”. For the same molecule, the “14+ Day XRPD” value ([4]; suspended in acetone at RT) was “Form I”, the “24 Hour XRPD” value ([4]; suspended in acetone at RT) was “Form I” and the “14+ Day XRPD” value ([4]; suspended in methanol at RT) was “Form I”. The “24 Hour XRPD” value ([4]; suspended in methanol at RT) was “Form I”, the “14+ Day XRPD” value ([4]; suspended in n-heptane at RT) was “Form I” and the “24 Hour XRPD” value ([4]; suspended in n-heptane at RT) was “Form I”. For the same molecule, the “14+ Day XRPD” value ([4]; suspended in water at RT) was “Form I”, the “24 Hour XRPD” value ([4]; suspended in water at RT) was “Form I” and the solubility [5] was about 20 mg/mL (≈ 44.9 mM).
In the case of Cc1cc(F)c(C(=O)Nc2cccc(-c3nncn3C(C)C)n2)cc1-n1cnc(C2CC2)c1.O=C(O)CCC(=O)O [Compound I Succinate Form I, 5-(4-cyclopropyl-1H-imidazol-1-yl)-N-(6-(4-isopropyl-4H-1,2,4-triazol-3-yl)pyridin-2-yl)-2-fluoro-4-methylbenzamide succinate], the “deliquescence” value [3] is reported as “did not show any evidence of deliquescence”.
For Cc1cc(F)c(C(=O)Nc2cccc(-c3nncn3C(C)C)n2)cc1-n1cnc(C2CC2)c1.O=C(O)CO [Compound I Glycolate Form I, 5-(4-cyclopropyl-1H-imidazol-1-yl)-N-(6-(4-isopropyl-4H-1,2,4-triazol-3-yl)pyridin-2-yl)-2-fluoro-4-methylbenzamide glycolate], the “deliquescence” value [3] was “did not show any evidence of deliquescence”.
